From PubChem BioAssay AID226 (DTP/NCI, 2004)
“And” between values parts separate entries of the source, which are not always exact repeats. Equal entries are not always repeated. Inconclusive results and toxic doses are left out. How the source made its calls: active means survival T/C of 150% or more; inactive means T/C below 125% in these data.

System: B6C3F1 mice, intracerebral ependymoblastoma, median survival T/C
Test: NCI In Vivo Anticancer Drug Screen. Data for tumor model Ependymoblastoma (intracerebral) in B6C3F1 mice
Settings: endpoint: median survival time, higher = longer survival
Protocol: The antitumor activity of compounds was measured in mice bearing transplantable tumors. Survival or tumor size were measured and the results are expressed as the measurement made in the treated group (T) divided by the measurement made in the vehicle treated control group (C). The tumor model used in this assay is Ependymoblastoma (intracerebral) in B6C3F1 mice

[1] = dose: 2.0 mg/kg/injection, schedule: Q01DX005 (ip), vehicle: dextrose
[2] = dose: 4.0 mg/kg/injection, schedule: Q01DX005 (ip), vehicle: dextrose

Measured: T/C

C1CCC2C[N-]CCC2C1.C1CCC2C[N-]CCC2C1.C1CCC2C[N-]CCC2C1.C1CCC2C[N-]CCC2C1.[Cl][Rh][Cl] (stereo not given)
inactive: [1] 102 % of control | [2] 117 % of control

CN(N=O)C(=O)N[C@@H](C=O)[C@@H](O)[C@H](O)[C@H](O)CO
inactive: dose: 6.25 mg/kg/injection, schedule: Q01DX009 (ip), vehicle: citric acid 96 % of control | dose: 12.5 mg/kg/injection, schedule: Q01DX005 (ip), vehicle: saline 103 % of control | dose: 12.5 mg/kg/injection, schedule: Q01DX009 (ip), vehicle: citric acid 108 % of control | dose: 25.0 mg/kg/injection, schedule: Q01DX005 (ip), vehicle: saline 122 % of control | dose: 25.0 mg/kg/injection, schedule: Q01DX009 (ip), vehicle: citric acid 117 % of control | dose: 64.0 mg/kg/injection, schedule: Q01DX001 (ip), vehicle: other 108 % of control | dose: 75.0 mg/kg/injection, schedule: Q01DX001 (ip), vehicle: saline 121 % of control | dose: 100.0 mg/kg/injection, schedule: Q01DX005 (ip), vehicle: saline 113 % of control | dose: 128.0 mg/kg/injection, schedule: Q01DX001 (ip), vehicle: other 105 % of control | dose: 200.0 mg/kg/injection, schedule: Q01DX005 (ip), vehicle: saline 113 % of control | dose: 256.0 mg/kg/injection, schedule: Q01DX001 (ip), vehicle: other 101 % of control | dose: 400.0 mg/kg/injection, schedule: Q01DX005 (ip), vehicle: saline 103 % of control | dose: 512.0 mg/kg/injection, schedule: Q01DX001 (ip), vehicle: other 108 % of control

O=C1NC2(CCCCC2)C(=O)N1CCN(CCCl)CCCl
inactive: dose: 1.0 mg/kg/injection, schedule: Q01DX005 (ip), vehicle: Klucel (hydroxypropylcellulose) (HPC) 116 % of control | dose: 1.0 mg/kg/injection, schedule: Q01DX005 (ip), vehicle: saline 99 % of control and 103 % of control and 107 % of control | dose: 1.5 mg/kg/injection, schedule: Q01DX005 (ip), vehicle: Klucel (hydroxypropylcellulose) (HPC) 101 % of control | dose: 1.56 mg/kg/injection, schedule: Q01DX005 (ip), vehicle: Klucel (hydroxypropylcellulose) (HPC) 100 % of control | dose: 2.0 mg/kg/injection, schedule: Q01DX005 (ip), vehicle: Klucel (hydroxypropylcellulose) (HPC) 99 % of control | dose: 2.5 mg/kg/injection, schedule: Q01DX005 (ip), vehicle: other 97 % of control | dose: 2.5 mg/kg/injection, schedule: Q01DX005 (ip), vehicle: saline 100 % of control | dose: 3.0 mg/kg/injection, schedule: Q01DX005 (ip), vehicle: Klucel (hydroxypropylcellulose) (HPC) 110 % of control | dose: 3.12 mg/kg/injection, schedule: Q01DX005 (ip), vehicle: Klucel (hydroxypropylcellulose) (HPC) 101 % of control | dose: 4.0 mg/kg/injection, schedule: Q01DX005 (ip), vehicle: Klucel (hydroxypropylcellulose) (HPC) 117 % of control | dose: 5.0 mg/kg/injection, schedule: Q01DX005 (ip), vehicle: other 112 % of control | dose: 5.0 mg/kg/injection, schedule: Q01DX005 (ip), vehicle: saline 98 % of control | dose: 6.0 mg/kg/injection, schedule: Q01DX005 (ip), vehicle: Klucel (hydroxypropylcellulose) (HPC) 111 % of control | dose: 6.0 mg/kg/injection, schedule: Q01DX005 (oral), vehicle: Klucel (hydroxypropylcellulose) (HPC) 105 % of control and 88 % of control | dose: 6.25 mg/kg/injection, schedule: Q01DX005 (ip), vehicle: Klucel (hydroxypropylcellulose) (HPC) 105 % of control | dose: 8.0 mg/kg/injection, schedule: Q01DX005 (ip), vehicle: Klucel (hydroxypropylcellulose) (HPC) 112 % of control | dose: 10.0 mg/kg/injection, schedule: Q01DX005 (ip), vehicle: saline 98 % of control | dose: 12.0 mg/kg/injection, schedule: Q01DX005 (oral), vehicle: Klucel (hydroxypropylcellulose) (HPC) 87 % of control | dose: 24.0 mg/kg/injection, schedule: Q01DX005 (oral), vehicle: Klucel (hydroxypropylcellulose) (HPC) 92 % of control and 100 % of control | dose: 48.0 mg/kg/injection, schedule: Q01DX005 (oral), vehicle: Klucel (hydroxypropylcellulose) (HPC) 101 % of control | dose: 96.0 mg/kg/injection, schedule: Q01DX005 (oral), vehicle: Klucel (hydroxypropylcellulose) (HPC) 97 % of control

CC(C)[C@](O)(C(=O)OCC1=CC[N+]2([O-])CC[C@@H](O)[C@@H]12)[C@H](C)O (stereo not given in full)
inactive: dose: 32.0 mg/kg/injection, schedule: Q01DX005 (ip), vehicle: saline 104 % of control | dose: 64.0 mg/kg/injection, schedule: Q01DX005 (ip), vehicle: saline 98 % of control and 101 % of control | dose: 128.0 mg/kg/injection, schedule: Q01DX005 (ip), vehicle: saline 95 % of control and 100 % of control | dose: 256.0 mg/kg/injection, schedule: Q01DX005 (ip), vehicle: saline 103 % of control and 108 % of control | dose: 512.0 mg/kg/injection, schedule: Q01DX005 (ip), vehicle: saline 94 % of control and 117 % of control

CC(=O)OCC1OC(n2cnc3c(=S)nc[nH]c32)C(OC(C)=O)C1OC(C)=O (stereo not given)
inactive: dose: 50.0 mg/kg/injection, schedule: Q01DX005 (ip), vehicle: suspension in saline 100 % of control | dose: 100.0 mg/kg/injection, schedule: Q01DX005 (ip), vehicle: suspension in saline 111 % of control | dose: 200.0 mg/kg/injection, schedule: Q01DX005 (ip), vehicle: suspension in saline 108 % of control

O=C(O)c1ccc(C(=O)O)c(C(=O)O)c1.[NH-]C1CCCCC1[NH-].[Pt+2]
inactive: dose: 0.25 mg/kg/injection, schedule: Q01DX005 (ip), vehicle: dextrose 92 % of control and 101 % of control | dose: 0.5 mg/kg/injection, schedule: Q01DX005 (ip), vehicle: dextrose 100 % of control and 118 % of control | dose: 1.0 mg/kg/injection, schedule: Q01DX005 (ip), vehicle: dextrose 95 % of control and 100 % of control | [1] 100 % of control and 105 % of control | [2] 98 % of control and 114 % of control

OCC1OC(n2cnc3c(SCc4ccccc4)ncnc32)C(O)C1O (stereo not given)
inactive: dose: 37.5 mg/kg/injection, schedule: Q01DX005 (ip), vehicle: saline with Tween-80 97 % of control | dose: 75.0 mg/kg/injection, schedule: Q01DX005 (ip), vehicle: saline with Tween-80 106 % of control | dose: 150.0 mg/kg/injection, schedule: Q01DX005 (ip), vehicle: saline with Tween-80 120 % of control

CN=S(=O)(OCCCCCOS(=O)(=NC)c1ccccc1)c1ccccc1 (stereo not given)
inactive: dose: 6.25 mg/kg/injection, schedule: Q01DX005 (ip), vehicle: saline with Tween-80 110 % of control | dose: 12.5 mg/kg/injection, schedule: Q01DX005 (ip), vehicle: saline with Tween-80 100 % of control | dose: 25.0 mg/kg/injection, schedule: Q01DX005 (ip), vehicle: saline with Tween-80 95 % of control and 106 % of control | dose: 50.0 mg/kg/injection, schedule: Q01DX005 (ip), vehicle: saline with Tween-80 111 % of control and 112 % of control | dose: 100.0 mg/kg/injection, schedule: Q01DX005 (ip), vehicle: saline with Tween-80 101 % of control and 123 % of control

CSCS(=O)C[C@H](CO)NC(=O)/C=C/c1c(C)[nH]c(=O)[nH]c1=O (stereo not given in full)
inactive: dose: 0.06 mg/kg/injection, schedule: Q01DX005 (ip), vehicle: Klucel (hydroxypropylcellulose) (HPC) 105 % of control | dose: 0.12 mg/kg/injection, schedule: Q01DX001 (ip), vehicle: Klucel (hydroxypropylcellulose) (HPC) 102 % of control and 104 % of control and 107 % of control | dose: 0.12 mg/kg/injection, schedule: Q01DX005 (ip), vehicle: Klucel (hydroxypropylcellulose) (HPC) 100 % of control | dose: 0.25 mg/kg/injection, schedule: Q01DX001 (ip), vehicle: Klucel (hydroxypropylcellulose) (HPC) 101 % of control and 102 % of control and 112 % of control | dose: 0.25 mg/kg/injection, schedule: Q01DX005 (ip), vehicle: Klucel (hydroxypropylcellulose) (HPC) 105 % of control | dose: 0.5 mg/kg/injection, schedule: Q01DX001 (ip), vehicle: Klucel (hydroxypropylcellulose) (HPC) 97 % of control and 103 % of control and 109 % of control | dose: 0.5 mg/kg/injection, schedule: Q01DX005 (ip), vehicle: Klucel (hydroxypropylcellulose) (HPC) 102 % of control | dose: 1.0 mg/kg/injection, schedule: Q01DX001 (ip), vehicle: Klucel (hydroxypropylcellulose) (HPC) 96 % of control and 97 % of control and 102 % of control
